Test results published in patent publication US20130102009A1, “SIRTUIN ACTIVATORS AND ACTIVATION ASSAYS” (priority 2010, published 2013).
Peptide text beside a SMILES is read from it. * marks the point of attachment. AMC = Cc1cc(=O)oc2cc(N*)ccc12

Columns and labels:
[1] = biological target: T1, SIRT1(183-664) (Homo sapiens, UniProt Q96EB6); assay: ITC binding of STACs to SIRT1(183-664); conditions: dissociation constant of SRT:SIRT1 complex, read-out: Kx (μM), ITC
T1 construct: the truncated version used for biophysical studies SIRT1(183-664); made in house
T1 sequence (Q96EB6 183-664): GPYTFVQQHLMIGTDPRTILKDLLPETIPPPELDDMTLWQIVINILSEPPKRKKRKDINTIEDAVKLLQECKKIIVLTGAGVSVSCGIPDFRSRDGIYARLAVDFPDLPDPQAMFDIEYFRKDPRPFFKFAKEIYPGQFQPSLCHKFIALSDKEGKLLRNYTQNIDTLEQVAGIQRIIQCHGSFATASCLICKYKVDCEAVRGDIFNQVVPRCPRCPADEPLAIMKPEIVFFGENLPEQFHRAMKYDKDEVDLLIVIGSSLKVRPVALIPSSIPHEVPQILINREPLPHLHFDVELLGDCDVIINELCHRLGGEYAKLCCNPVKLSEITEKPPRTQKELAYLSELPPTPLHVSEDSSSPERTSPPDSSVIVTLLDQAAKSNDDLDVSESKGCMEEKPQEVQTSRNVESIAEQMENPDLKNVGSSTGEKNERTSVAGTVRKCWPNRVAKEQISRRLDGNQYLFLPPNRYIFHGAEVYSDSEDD
Description: All peptides were prepared by BioPeptide (San Diego, Calif.) and shown to be at least 95% pure by analytical HPLC analysis. Bovine glutamate dehydrogenase (GDH), α-ketoglutarate, NADH and NAD^+ were from Sigma Chemical Company. Full-length, human SIRT1 and the truncated version used for biophysical studies SIRT1(183-664) were prepared as described previously, and shown to have equivalent kinetic properties (Milne et al. (2007) Nature 450, 712-716). The nicotinamidase PNC1 was prepared as described by Denu and colleagues (Smith et al. (2009) Anal Biochem 394, 101-109). ITC experiments were performed using either a VP-ITC system or iTC200 system (MicroCal) at 26° C. in a buffer composed of 137 mM NaCl, 2.7 mM KCl, 1 mM MgCl2, 2 mM TCEP, 5% (v/v) glycerol and 50 mM HEPES-NaOH, pH 7.3. SIRT1(183-664) was purified and dialyzed against the buffer, centrifuged, and degassed before the experiment. The peptide and compounds were dissolved in the final dialysis buffer and their pH values were adjusted to match that of the protein solution. […] To characterize this interaction using the iTC200 system, 1 mM TAMRA-peptide was injected in 20 aliquots of 2 μL, (except the first injection, which was 0.5 μL) into a 0.202 mL sample cell containing 100 μM STAC. For STACs with poor solubility, the concentrations were adjusted accordingly. […] To characterize the interaction of a STAC with SIRT1(183-664) on the VP-ITC system, 100 μM enzyme was injected in 35 aliquots of 8 μL, (except the first injection, which was 2 μL) into a 1.47 mL sample cell containing 10 μM STAC. […] In all cases, data was corrected for the heat of dilution and fitted using a nonlinear least-squares routine using a single-site binding model with Origin for ITC v7.0383 (Microcal) with the stoichiometry (n), the enthalpy of the reaction (ΔH) and the association constant (Ka) calculated.

[2] = biological target: T2, SIRT1 (Homo sapiens, UniProt Q96EB6); assay: Steady-state kinetic parameters for SIRT1 substrates (PNC1-GDH-coupled assay); assay type: biochemical; design: kc/K1: unit not given here; conditions: 25° C., pH 7.5, [NAD+]o = 2 mM, [SIRT1]o 50-1,000 nM
T2 sequence (Q96EB6 1-747): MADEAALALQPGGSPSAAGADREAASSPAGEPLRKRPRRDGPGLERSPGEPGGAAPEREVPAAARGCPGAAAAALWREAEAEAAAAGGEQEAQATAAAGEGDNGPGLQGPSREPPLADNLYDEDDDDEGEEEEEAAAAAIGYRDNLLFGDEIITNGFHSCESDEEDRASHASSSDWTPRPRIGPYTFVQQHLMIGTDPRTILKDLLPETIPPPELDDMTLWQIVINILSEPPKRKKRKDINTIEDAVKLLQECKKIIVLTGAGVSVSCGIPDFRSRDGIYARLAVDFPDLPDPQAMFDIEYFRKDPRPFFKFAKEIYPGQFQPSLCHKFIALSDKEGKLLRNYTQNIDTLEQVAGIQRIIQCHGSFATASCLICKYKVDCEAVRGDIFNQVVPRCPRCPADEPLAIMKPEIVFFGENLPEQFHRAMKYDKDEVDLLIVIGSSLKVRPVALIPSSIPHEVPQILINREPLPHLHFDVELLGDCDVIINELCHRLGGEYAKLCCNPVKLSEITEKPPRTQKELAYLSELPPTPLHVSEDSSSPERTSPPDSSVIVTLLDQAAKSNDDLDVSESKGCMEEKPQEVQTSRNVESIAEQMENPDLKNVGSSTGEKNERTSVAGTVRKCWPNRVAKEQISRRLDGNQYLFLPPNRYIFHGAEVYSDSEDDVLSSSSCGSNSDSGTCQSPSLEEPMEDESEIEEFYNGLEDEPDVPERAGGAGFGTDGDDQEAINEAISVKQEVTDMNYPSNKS
Description: All peptides were prepared by BioPeptide (San Diego, Calif.) and shown to be at least 95% pure by analytical HPLC analysis. Bovine glutamate dehydrogenase (GDH), α-ketoglutarate, NADH and NAD^+ were from Sigma Chemical Company. Full-length, human SIRT1 and the truncated version used for biophysical studies SIRT1(183-664) were prepared as described previously, and shown to have equivalent kinetic properties (Milne et al. (2007) Nature 450, 712-716). The nicotinamidase PNC1 was prepared as described by Denu and colleagues (Smith et al. (2009) Anal Biochem 394, 101-109).
To determine the interaction of STACs with SIRT1 two kinetic methods were employed. One, which was used for TAMRA-peptide, desTAMRA-peptide, des(biotin,TAMRA)-peptide, and p53-20 mer, used a previously described mass spectroscopic method for detection of peptide reaction products (Milne et al. (2007) Nature 450, 712-716). The other, used with peptides of general structure Ac-Arg-His-Lys-Lys^Ac-X, used a continuous, enzyme-coupled method reported previously (Smith et al. (2009) Anal Biochem 394, 101-109), in which the SRT1 product nicotinamide is first converted into nicotinic acid and ammonia by the action of PNC1, and the ammonia then used by GDH to convert α-ketoglutarate into glutamate. This reaction occurs with oxidation of NADH to NAD^+ which is accompanied by a change in absorbance at 340 nm (Δε340=−6,200 M^−1 cm^−1).
The kinetic experiments used to characterize activators were run on a Perkin Elmer Lambda 25 spectrophotometer equipped with a water-jacketed, eight-cell changer maintained at 25° C. In a typical kinetic experiment, all components of the reaction solution except SIRT1 were added to a 1 mL cuvette and allowed to reach thermal equilibrium. Final concentrations of the coupling system components were: 1 μM PNC1, 0.23 mM NADH, 3.4 mM α-ketoglutarate, and 20 U/mL bovine GDH. This solution also contained peptide substrate, NAD^.0., and activator, at concentrations indicated in the text. The final DMSO concentration was kept constant at 1%, and the buffer used in these experiments was 50 mM HEPES, 150 mM NaCl, pH 7.5. While the system was reaching thermal equilibrium, the absorbance was monitored to provide an accurate estimate of the background rate, which was subtracted from the reaction rate after the addition of SIRT1.
The parameters reported in this table were all determined using the PNC1-GDH-coupled assay. Kinetic parameters for the four 20 mers were also estimated using the mass spectroscopy-based assay first described by Milne et al. ((2007) Nature 450, 712-716) and agree with those reported in Table 3.

Kd [1] [µM] | kc [2] [s⁻¹] | kc/K1 [2] | Compound | Km [2] [µM]
0.32 |  |  | CN(C)CCCNc1cc(-c2nc3c(NC(=O)c4ccc(CN5CCNCC5)cc4)cccc3[nH]2)ccn1 [drawing 21] | 
 | 0.091 | 0.8 | CC(=O)NCCCC[C@H](NC(=O)[C@H](CCCCN)NC(=O)[C@H](Cc1c[nH]cn1)NC(=O)[C@H](CCCNC(=N)N)NC(C)=O)C(=O)Nc1ccc2c(C)cc(=O)oc2c1 [RHKK^Ac-AMC, Ac-Arg-His-Lys-Lys^Ac-AMC] (Ac-RHKK(Ac)-{AMC}) | 
 | 0.19 | 48 | CC(=O)NCCCC[C@H](NC(=O)[C@H](CCCCN)NC(=O)[C@H](Cc1c[nH]cn1)NC(=O)[C@H](CCCNC(=N)N)NC(C)=O)C(=O)N[C@@H](Cc1c[nH]c2ccccc12)C(N)=O [RHKK^AcW, Ac-Arg-His-Lys-Lys^Ac-Trp-NH2] (Ac-RHKK(Ac)W-NH2) | 
0.43 |  |  | CCCNc1cc(-c2nc3c(NC(=O)c4ccc(CN5CCNCC5)cc4)cccc3[nH]2)ccn1 [drawing 20] | 
 | 0.15 | 12 | CC(=O)NCCCC[C@H](NC(=O)[C@H](CCCCN)NC(=O)[C@H](Cc1c[nH]cn1)NC(=O)[C@H](CCCNC(=N)N)NC(C)=O)C(=O)N[C@@H](C)C(N)=O [RHKK^AcA, Ac-Arg-His-Lys-Lys^Ac-Ala] (Ac-RHKK(Ac)A-NH2) | 
 | 0.36 | 42 | SKKGQSTSRHKK^AcLJKTEGP [p53-20mer] | 8.5
 | 0.14 | 6.0 | CC(=O)NCCCC[C@H](NC(=O)[C@H](CCCCN)NC(=O)[C@H](Cc1c[nH]cn1)NC(=O)[C@H](CCCNC(=N)N)NC(C)=O)C(N)=O [RHKK^Ac, Ac-Arg-His-Lys-Lys^Ac-NH2] (Ac-RHKK(Ac)-NH2) | 
 | 0.16 | 23 | CC(=O)NCCCC[C@H](NC(=O)[C@H](CCCCN)NC(=O)[C@H](Cc1c[nH]cn1)NC(=O)[C@H](CCCNC(=N)N)NC(C)=O)C(=O)N[C@@H](Cc1ccccc1)C(N)=O [RHKK^AcF, Ac-Arg-His-Lys-Lys^Ac-Phe-NH2] (Ac-RHKK(Ac)F-NH2) | 

Compound | Kd [1] [µM] | kc [2] [s⁻¹] | kc/K1 [2] | Km [2] [µM]
EEKGQSTSSHK^AcJSTEGKEE [des(Biotin,TAMRA)-peptide] |  | 0.044 | 1.1 | 40
Ac-EEK^(biotin)GQSTSSHSK^AcNle-STEGK^(5-TMR)EE-NH2 [TAMRA-peptide] |  | 0.036 | 4.3 | 8.3
